Like-named read-outs stand apart in the source and are kept apart here.
Assays:
[1] = target: PIK3Cβ_h (Homo sapiens (Human), UniProt P42338); test: KINOMEscan enzyme binding assay, PIK3Cβ; conditions: DiscoveRx
Protocol: (§1) Enzyme Binding Assays (KINOMEscan®) Kinase enzyme binding affinities of compounds disclosed herein were determined using the KINOMEscan technology performed by DiscoveRx Corporation, San Diego, Calif., USA (www.kinomescan.com). Table A reports the obtained Kd values (nM), with the Kd being the inhibitor binding constant: […]

[2] = target: PIK3Cδ_h (Homo sapiens (Human), UniProt O00329); test: KINOMEscan enzyme binding assay, PIK3Cδ; conditions: DiscoveRx
Chain of PIK3Cδ_h (O00329 whole entry): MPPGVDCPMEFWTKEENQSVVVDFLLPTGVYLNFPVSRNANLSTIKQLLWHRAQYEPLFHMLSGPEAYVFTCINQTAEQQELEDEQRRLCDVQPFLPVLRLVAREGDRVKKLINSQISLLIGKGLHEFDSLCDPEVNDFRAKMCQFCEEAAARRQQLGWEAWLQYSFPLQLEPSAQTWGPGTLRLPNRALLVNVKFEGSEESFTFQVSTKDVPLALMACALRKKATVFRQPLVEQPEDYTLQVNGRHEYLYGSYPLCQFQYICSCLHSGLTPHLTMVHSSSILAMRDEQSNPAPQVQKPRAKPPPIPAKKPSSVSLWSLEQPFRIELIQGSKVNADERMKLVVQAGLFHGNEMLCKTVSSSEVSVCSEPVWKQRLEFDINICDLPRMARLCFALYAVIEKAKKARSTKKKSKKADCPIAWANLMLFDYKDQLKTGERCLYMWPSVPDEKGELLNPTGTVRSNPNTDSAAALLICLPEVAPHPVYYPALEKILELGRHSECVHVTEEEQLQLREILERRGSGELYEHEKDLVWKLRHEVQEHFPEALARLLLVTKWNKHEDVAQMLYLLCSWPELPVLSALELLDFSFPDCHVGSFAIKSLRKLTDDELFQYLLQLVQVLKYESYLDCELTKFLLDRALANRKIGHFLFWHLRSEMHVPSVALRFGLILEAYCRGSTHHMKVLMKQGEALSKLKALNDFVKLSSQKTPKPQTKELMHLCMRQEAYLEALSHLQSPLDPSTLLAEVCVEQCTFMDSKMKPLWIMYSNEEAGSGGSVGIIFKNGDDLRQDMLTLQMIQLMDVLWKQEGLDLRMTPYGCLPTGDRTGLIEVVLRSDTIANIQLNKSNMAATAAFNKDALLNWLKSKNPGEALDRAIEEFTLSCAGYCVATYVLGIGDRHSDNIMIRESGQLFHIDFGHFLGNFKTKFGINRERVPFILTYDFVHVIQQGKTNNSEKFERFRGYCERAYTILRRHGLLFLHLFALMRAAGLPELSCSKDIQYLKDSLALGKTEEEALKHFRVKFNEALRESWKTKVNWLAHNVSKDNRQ
Protocol: as §1

[3] = test system: Akt phosphorylated at Ser473 in PC-3 cells; test: Cellular assay: phosphorylation of Akt (Ser473) in PC-3 cells, MSD ELISA; format: cell-based; conditions: 60 min incubation with compound, read-out: IC50 pAkt_S473
How it was run: (§2)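 PC-3 cells cultured 24 h in DMEM/10% FCS were exposed to compound for 60 min at 37° C, with 0.3% DMSO. Lysates were analysed by MSD electrochemiluminescent sandwich ELISA using phospho-Ser473 or phospho-Thr308 capture and anti-total Akt detection antibodies. IC50 was derived by nonlinear sigmoidal fitting of % inhibition over five concentrations.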

[4] = target: PIK3Cγ_h (Homo sapiens (Human), UniProt P48736); test: KINOMEscan enzyme binding assay, PIK3Cγ; conditions: DiscoveRx
Chain of PIK3Cγ_h (P48736 whole entry): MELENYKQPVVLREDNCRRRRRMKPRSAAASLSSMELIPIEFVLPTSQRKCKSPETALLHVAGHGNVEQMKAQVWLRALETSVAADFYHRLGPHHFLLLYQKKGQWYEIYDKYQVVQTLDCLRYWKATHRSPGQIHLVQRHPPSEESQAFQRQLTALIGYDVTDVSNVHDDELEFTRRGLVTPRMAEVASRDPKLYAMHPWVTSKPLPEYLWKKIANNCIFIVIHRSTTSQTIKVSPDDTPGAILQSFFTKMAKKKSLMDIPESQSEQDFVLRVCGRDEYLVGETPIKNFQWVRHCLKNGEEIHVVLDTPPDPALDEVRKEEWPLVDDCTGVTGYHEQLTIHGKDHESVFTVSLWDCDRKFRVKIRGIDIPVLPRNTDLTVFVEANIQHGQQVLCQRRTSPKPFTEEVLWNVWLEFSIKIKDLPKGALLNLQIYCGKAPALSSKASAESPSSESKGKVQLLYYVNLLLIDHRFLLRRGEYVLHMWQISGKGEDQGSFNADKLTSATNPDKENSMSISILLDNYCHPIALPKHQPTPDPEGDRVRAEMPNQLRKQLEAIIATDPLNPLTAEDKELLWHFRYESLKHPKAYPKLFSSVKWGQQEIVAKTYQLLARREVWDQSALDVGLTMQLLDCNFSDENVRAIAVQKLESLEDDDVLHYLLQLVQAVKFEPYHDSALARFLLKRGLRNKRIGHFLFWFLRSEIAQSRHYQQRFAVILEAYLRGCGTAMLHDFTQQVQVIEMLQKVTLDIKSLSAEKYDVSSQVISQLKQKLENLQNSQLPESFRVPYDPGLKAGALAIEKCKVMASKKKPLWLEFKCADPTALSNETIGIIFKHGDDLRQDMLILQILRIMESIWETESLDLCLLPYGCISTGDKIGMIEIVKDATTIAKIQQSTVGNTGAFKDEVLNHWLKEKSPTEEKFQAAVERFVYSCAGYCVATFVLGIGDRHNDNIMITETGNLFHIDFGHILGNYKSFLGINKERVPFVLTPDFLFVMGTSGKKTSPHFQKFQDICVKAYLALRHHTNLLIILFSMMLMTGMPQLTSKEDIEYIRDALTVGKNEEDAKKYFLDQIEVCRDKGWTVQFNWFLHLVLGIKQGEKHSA
Protocol: (§3) Enzyme Binding Assays (KINOMEscan®) Kinase enzyme binding affinities of compounds disclosed herein were determined using the KINOMEscan technology performed by DiscoveRx Corporation, San Diego, Calif., USA (www.kinomescan.com).

[5] = target: MTOR_h (Homo sapiens (Human), UniProt P42345); test: KINOMEscan enzyme binding assay, MTOR; conditions: DiscoveRx
Protocol: as §3

[6] = test system: Akt phosphorylated at Thr308 in PC-3 cells; test: Cellular assay: phosphorylation of Akt (Thr308) in PC-3 cells, MSD ELISA; format: cell-based; conditions: 60 min incubation with compound, read-out: IC50 pAkt_Thr308
How it was run: as §2

[7] = target: PIK3Cα_h (Homo sapiens (Human), UniProt P42336); test: KINOMEscan enzyme binding assay, PIK3Cα; conditions: DiscoveRx
Chain of PIK3Cα_h (P42336 whole entry): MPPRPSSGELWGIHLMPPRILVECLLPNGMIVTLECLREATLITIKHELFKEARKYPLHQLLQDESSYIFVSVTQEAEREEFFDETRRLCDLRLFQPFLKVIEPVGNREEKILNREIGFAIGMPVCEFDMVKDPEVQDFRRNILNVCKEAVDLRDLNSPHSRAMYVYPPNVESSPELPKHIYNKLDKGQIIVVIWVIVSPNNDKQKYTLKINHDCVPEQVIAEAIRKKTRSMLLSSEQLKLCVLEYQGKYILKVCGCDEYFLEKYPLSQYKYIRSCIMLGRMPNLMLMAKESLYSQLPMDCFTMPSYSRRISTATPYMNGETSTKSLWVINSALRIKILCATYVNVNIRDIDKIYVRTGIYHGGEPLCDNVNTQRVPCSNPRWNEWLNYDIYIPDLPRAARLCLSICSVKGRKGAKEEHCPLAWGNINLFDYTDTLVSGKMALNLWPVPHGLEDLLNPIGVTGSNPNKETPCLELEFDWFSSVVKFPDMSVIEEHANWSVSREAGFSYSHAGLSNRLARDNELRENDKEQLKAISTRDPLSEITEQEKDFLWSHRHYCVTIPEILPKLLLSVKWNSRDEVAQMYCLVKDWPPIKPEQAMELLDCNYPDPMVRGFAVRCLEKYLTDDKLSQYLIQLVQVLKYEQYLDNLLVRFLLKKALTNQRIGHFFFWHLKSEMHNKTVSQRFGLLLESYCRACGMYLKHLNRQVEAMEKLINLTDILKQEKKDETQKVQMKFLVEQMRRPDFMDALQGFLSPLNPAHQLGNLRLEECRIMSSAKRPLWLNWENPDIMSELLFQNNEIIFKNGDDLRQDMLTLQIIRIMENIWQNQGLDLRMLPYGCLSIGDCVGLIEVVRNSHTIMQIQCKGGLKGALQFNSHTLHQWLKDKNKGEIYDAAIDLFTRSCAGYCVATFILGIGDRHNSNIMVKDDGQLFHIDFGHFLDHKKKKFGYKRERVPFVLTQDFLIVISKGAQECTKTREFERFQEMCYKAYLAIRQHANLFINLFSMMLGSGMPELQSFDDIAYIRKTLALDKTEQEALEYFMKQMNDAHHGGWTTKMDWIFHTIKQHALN
Protocol: as §3

Chain of PIK3Cβ_h (P42338 whole entry): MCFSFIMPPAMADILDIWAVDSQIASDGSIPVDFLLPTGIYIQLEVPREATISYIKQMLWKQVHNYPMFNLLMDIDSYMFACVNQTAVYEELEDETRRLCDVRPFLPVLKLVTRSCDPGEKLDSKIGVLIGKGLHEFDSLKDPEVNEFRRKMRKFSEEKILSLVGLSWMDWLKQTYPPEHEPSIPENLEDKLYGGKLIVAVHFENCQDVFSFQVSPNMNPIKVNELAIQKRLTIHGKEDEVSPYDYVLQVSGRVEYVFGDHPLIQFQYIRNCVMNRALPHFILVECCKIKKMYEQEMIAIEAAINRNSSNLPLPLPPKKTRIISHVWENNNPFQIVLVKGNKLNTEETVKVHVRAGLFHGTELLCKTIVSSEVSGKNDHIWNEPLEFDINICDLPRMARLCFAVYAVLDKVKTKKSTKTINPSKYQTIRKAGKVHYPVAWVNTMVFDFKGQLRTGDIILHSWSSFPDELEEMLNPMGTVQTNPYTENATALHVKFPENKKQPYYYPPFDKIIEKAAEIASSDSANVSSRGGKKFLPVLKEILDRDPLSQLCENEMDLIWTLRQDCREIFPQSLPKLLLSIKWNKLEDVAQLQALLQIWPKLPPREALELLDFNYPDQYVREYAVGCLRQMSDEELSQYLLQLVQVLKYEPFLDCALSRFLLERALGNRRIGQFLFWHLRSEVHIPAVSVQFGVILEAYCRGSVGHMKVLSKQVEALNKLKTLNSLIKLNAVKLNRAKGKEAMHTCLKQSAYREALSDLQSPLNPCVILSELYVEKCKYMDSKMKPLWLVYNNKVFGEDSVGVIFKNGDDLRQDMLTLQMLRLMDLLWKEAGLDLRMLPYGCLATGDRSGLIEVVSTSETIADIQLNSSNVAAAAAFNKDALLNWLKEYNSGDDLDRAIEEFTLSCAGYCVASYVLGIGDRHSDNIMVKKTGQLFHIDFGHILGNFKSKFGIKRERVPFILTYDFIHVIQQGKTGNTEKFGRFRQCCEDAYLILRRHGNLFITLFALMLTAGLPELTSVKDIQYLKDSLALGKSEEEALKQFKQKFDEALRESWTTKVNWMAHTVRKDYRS

Cc1c(Cc2c(CF)nc3c(N)cc(N4CCOCC4)nn23)cccc1C(F)(F)F [Compound 17]
Kd [1]: 3.3 nM | Kd [2]: 427 nM | IC50 ([3]; Homo sapiens, PC-3, 1 h): 81 nM | Kd [4]: 15.8 µM | Kd [5]: 14.1 µM | IC50 ([6]; Homo sapiens, PC-3, 1 h): ~50 nM | Kd [7]: 17 µM

CCC(C)C(N)C(=O)OCc1nc2c(N)cc(N3CCOCC3)nn2c1Cc1cccc(C(F)(F)F)c1C (stereo not drawn) [Compound 81]
Kd [1]: 5 nM | Kd [2]: 724 nM | IC50 ([3]; Homo sapiens, PC-3, 1 h): > 513 nM | Kd [4]: > 30.2 µM | Kd [5]: > 30.2 µM | IC50 ([6]; Homo sapiens, PC-3, 1 h): 282 nM | Kd [7]: 26.9 µM

Cc1nc2c(-c3cnc[nH]3)cc(N3CCOCC3)nn2c1Nc1cccc(C(F)(F)F)c1CN1CCOCC1 [Compound 41]
Kd [1]: 7 nM | Kd [2]: 12 nM | IC50 ([3]; Homo sapiens, PC-3, 1 h): ~37 nM | Kd [4]: 0.955 µM | Kd [5]: 1.7 µM | IC50 ([6]; Homo sapiens, PC-3, 1 h): 22 nM | Kd [7]: 0.275 µM

Cc1nc2c(N)cc(N3CCOCC3)nn2c1Nc1cccc(C(F)(F)F)c1CN1CCC(S(C)(=O)=O)CC1 [Compound 54]
Kd [1]: 12 nM | Kd [2]: 490 nM | IC50 ([3]; Homo sapiens, PC-3, 1 h): 200 nM | Kd [4]: > 30.2 µM | Kd [5]: > 30.2 µM | IC50 ([6]; Homo sapiens, PC-3, 1 h): 98 nM | Kd [7]: 16.2 µM

Cc1nc2c(C(=O)O)cc(N3CCOCC3)nn2c1Nc1ccccc1N1CCOCC1 [Compound 86]
Kd [1]: 10 nM | Kd [2]: 117 nM | IC50 ([3]; Homo sapiens, PC-3, 1 h): > 513 nM | Kd [4]: 13.2 µM | Kd [5]: 19.5 µM | IC50 ([6]; Homo sapiens, PC-3, 1 h): > 513 nM | Kd [7]: 1.78 µM

Cc1nc2c(-c3c[nH]cn3)cc(N3CCOCC3)nn2c1Nc1cccc(C(F)(F)F)c1CN1CCN(C)CC1 [Compound 57]
Kd [1]: 0.7 nM | Kd [2]: 9 nM | IC50 ([3]; Homo sapiens, PC-3, 1 h): 34 nM | Kd [4]: 0.891 µM | Kd [5]: 6.31 µM | IC50 ([6]; Homo sapiens, PC-3, 1 h): 26 nM | Kd [7]: 0.339 µM

Cc1c(Cc2c(C(C)O)nc3c(N)cc(N4CCOCC4)nn23)cccc1C(F)(F)F (stereo not drawn) [Compound 32]
Kd [1]: 1.8 nM | Kd [2]: 355 nM | IC50 ([3]; Homo sapiens, PC-3, 1 h): 87 nM | Kd [4]: 12 µM | Kd [5]: 22.4 µM | IC50 ([6]; Homo sapiens, PC-3, 1 h): 35 nM | Kd [7]: 14.8 µM

Cc1c(Cl)cccc1Cc1c(CO)nc2c(-c3c[nH]cn3)cc(N3CCOCC3)nn12 [Compound 67]
Kd [1]: 0.5 nM | Kd [2]: 17 nM | IC50 ([3]; Homo sapiens, PC-3, 1 h): 23 nM | Kd [4]: 0.324 µM | Kd [5]: 0.186 µM | IC50 ([6]; Homo sapiens, PC-3, 1 h): 74 nM | Kd [7]: 0.195 µM

Cc1nc2c(N)cc(N3CCOCC3)nn2c1Nc1cccc(C(F)(F)F)c1CN1CC(S(C)(=O)=O)C1 [Compound 48]
Kd [1]: 1.7 nM | Kd [2]: 34 nM | IC50 ([3]; Homo sapiens, PC-3, 1 h): 98 nM | Kd [4]: 6.17 µM | Kd [5]: > 30.2 µM | IC50 ([6]; Homo sapiens, PC-3, 1 h): 55 nM | Kd [7]: 2.75 µM

Cc1nc2c(-c3ccn[nH]3)cc(N3CCOCC3)nn2c1Nc1ccccc1N1CCOCC1 [Compound 89]
Kd [1]: 22 nM | Kd [2]: 44 nM | IC50 ([3]; Homo sapiens, PC-3, 1 h): 115 nM | Kd [4]: 0.851 µM | Kd [5]: 0.085 µM | IC50 ([6]; Homo sapiens, PC-3, 1 h): 83 nM | Kd [7]: 0.631 µM

Nc1cc(N2CCOCC2)nn2c(Cc3cccc(F)c3C3CCN(CCO)CC3)c(CO)nc12 [Compound 108]
Kd [1]: 14 nM | Kd [2]: 376 nM | IC50 ([3]; Homo sapiens, PC-3, 1 h): > 513 nM | Kd [4]: 13.6 µM | Kd [5]: 18.7 µM | IC50 ([6]; Homo sapiens, PC-3, 1 h): > 513 nM | Kd [7]: 21.4 µM

Cc1nc2c(C(=O)O)cc(N3CCOCC3)nn2c1Cc1cccc(C(F)(F)F)c1C [Compound 9]
Kd [1]: 1.4 nM | Kd [2]: 174 nM | IC50 ([3]; Homo sapiens, PC-3, 1 h): 513 nM | Kd [4]: 5.25 µM | Kd [5]: 12.9 µM | IC50 ([6]; Homo sapiens, PC-3, 1 h): 316 nM | Kd [7]: 1.35 µM

Cc1c(Cc2c(CNCCS(C)(=O)=O)nc3c(N)cc(N4CCOCC4)nn23)cccc1C(F)(F)F [Compound 2]
Kd [1]: 1.4 nM | Kd [2]: 178 nM | IC50 ([3]; Homo sapiens, PC-3, 1 h): 138 nM | Kd [4]: > 30.2 µM | Kd [5]: 23.4 µM | IC50 ([6]; Homo sapiens, PC-3, 1 h): 186 nM | Kd [7]: 8.13 µM

Cc1c(Cc2c(CO)nc3c(-c4c[nH]cn4)cc(N4CCOC(C)C4)nn23)cccc1C(F)(F)F (stereo not drawn) [Compound 27]
Kd [1]: 2.4 nM | Kd [2]: 58 nM | IC50 [3]: 42 nM | Kd [4]: 0.479 µM | Kd [5]: 0.447 µM | IC50 [6]: 14 nM | Kd [7]: 0.617 µM

Cc1nc2c(N)cc(N3CCOCC3)nn2c1Nc1cccc(C(F)(F)F)c1CN1CCC2(C1)CS(=O)(=O)C2 [Compound 49]
Kd [1]: 9 nM | Kd [2]: 331 nM | IC50 ([3]; Homo sapiens, PC-3, 1 h): 45 nM | Kd [4]: > 30.2 µM | Kd [5]: > 30.2 µM | IC50 ([6]; Homo sapiens, PC-3, 1 h): ~21 nM | Kd [7]: 13.5 µM

Cc1nc2c(C(N)=O)cc(N3CCOCC3)nn2c1Nc1ccccc1N1CCOCC1 [Compound 87]
Kd [1]: 43 nM | Kd [2]: 219 nM | IC50 ([3]; Homo sapiens, PC-3, 1 h): 257 nM | Kd [4]: 3.63 µM | Kd [5]: 5.89 µM | IC50 ([6]; Homo sapiens, PC-3, 1 h): ~224 nM | Kd [7]: 1.2 µM

Cc1cccc(Cc2c(C)nc3c(C(=O)O)cc(N4CCOCC4)nn23)c1C [Compound 12]
Kd [1]: < 1.5 nM | Kd [2]: 69 nM | IC50 ([3]; Homo sapiens, PC-3, 1 h): ~316 nM | Kd [4]: 6.17 µM | Kd [5]: 9.33 µM | IC50 ([6]; Homo sapiens, PC-3, 1 h): ~151 nM | Kd [7]: 1.07 µM

Cc1nc2c(N)cc(N3CCOCC3)nn2c1Nc1ccccc1CN1CCOCC1 [Compound 69]
Kd [1]: 15 nM | Kd [2]: 56 nM | IC50 ([3]; Homo sapiens, PC-3, 1 h): 186 nM | Kd [4]: 24.5 µM | Kd [5]: 1.51 µM | IC50 ([6]; Homo sapiens, PC-3, 1 h): 151 nM | Kd [7]: 5.37 µM

Cc1c(Cc2c(CNCCO)nc3c(N)cc(N4CCOCC4)nn23)cccc1C(F)(F)F [Compound 3]
Kd [1]: 1.1 nM | Kd [2]: 105 nM | IC50 ([3]; Homo sapiens, PC-3, 1 h): 120 nM | Kd [4]: 15.5 µM | Kd [5]: 7.94 µM | IC50 ([6]; Homo sapiens, PC-3, 1 h): ~71 nM | Kd [7]: 9.55 µM

Cc1nc2c(N)cc(N3CCOCC3)nn2c1Cc1cccc2c1CNCC2 [Compound 109]
Kd [1]: 9 nM | Kd [2]: 98 nM | IC50 ([3]; Homo sapiens, PC-3, 1 h): 136 nM | Kd [4]: 2.9 µM | Kd [5]: 22.2 µM | IC50 ([6]; Homo sapiens, PC-3, 1 h): 82 nM | Kd [7]: 12.8 µM

Cc1c(F)cccc1Cc1c(CNCCO)nc2c(N)cc(N3CCOCC3)nn12 [Compound 97]
Kd [1]: 1.6 nM | Kd [2]: 200 nM | IC50 ([3]; Homo sapiens, PC-3, 1 h): 79 nM | Kd [4]: 3.71 µM | Kd [5]: 0.912 µM | IC50 ([6]; Homo sapiens, PC-3, 1 h): 40 nM | Kd [7]: 11.2 µM

Cc1nc2c(N)cc(N3CCOCC3)nn2c1Nc1cccc(C(F)(F)F)c1CN1CCOCC1 [Compound 38]
Kd [1]: 4 nM | Kd [2]: 15 nM | IC50 ([3]; Homo sapiens, PC-3, 1 h): 18 nM | Kd [4]: 12.9 µM | Kd [5]: 9.37 µM | IC50 ([6]; Homo sapiens, PC-3, 1 h): 10 nM | Kd [7]: 4.05 µM

Cc1nc2c(N)cc(N3CCOCC3)nn2c1Nc1cccc(C(F)(F)F)c1C [Compound 33]
Kd [1]: 6 nM | Kd [2]: 171 nM | IC50 ([3]; Homo sapiens, PC-3, 1 h): 12 nM | Kd [4]: 11.4 µM | Kd [5]: 20.3 µM | IC50 ([6]; Homo sapiens, PC-3, 1 h): 17 nM | Kd [7]: 5.13 µM

Cc1nc2c(N)cc(N3CCOCC3)nn2c1Nc1cccc(F)c1CNC(C)CO (stereo not drawn) [Compound 71]
Kd [1]: 6 nM | Kd [2]: 75 nM | IC50 ([3]; Homo sapiens, PC-3, 1 h): 246 nM | Kd [4]: > 30.2 µM | Kd [5]: > 30.2 µM | IC50 ([6]; Homo sapiens, PC-3, 1 h): 107 nM | Kd [7]: 17 µM
